# Species: Rattus norvegicus
# Test: Open TG-GATES - Regimen: Daily Repeat
# Type: toxicity, organism-based, Sprague-Dawley
# Set-up: regimen Daily Repeat, gender Male, age 6 weeks
# Details: in vivo, po, 15 mg/kg, route gavage, dose level High; for APTT / Bas / Eos / Fbg / Hb / Ht / Lym / MCH / MCHC / MCV / Mono / Neu / PT / Plat / RBC / Ret / WBC: tissue Blood; for KIDNEY_L / KIDNEY_R / KIDNEY_TOTAL: tissue Kidney; for LIVER: tissue Liver; for ALP / ALT / AST / BUN / CRE / Ca / Cl / DBIL / GLC / IP / K / LDH / Na / PL / RALB / TBIL / TC / TG / TP / gamma-GTP: tissue Plasma
smiles,measurement,setting,value
O=P1(N(CCCl)CCCl)NCCCO1 (stereo not drawn) [CYCLOPHOSPHAMIDE ANHYDROUS],TERMINAL_BW,"72 h, time 3 day",216.4 g
same,APTT,"72 h, time 3 day",19.7 s
same,Bas,"72 h, time 3 day",0%
same,Eos,"72 h, time 3 day",1%
same,Fbg,"72 h, time 3 day",279.6 mg/dL
same,Hb,"72 h, time 3 day",12.9 g/dL
same,Ht,"72 h, time 3 day",38.7%
same,Lym,"72 h, time 3 day",73.8%
same,MCH,"72 h, time 3 day",21.8 pg
same,MCHC,"72 h, time 3 day",33.3%
same,MCV,"72 h, time 3 day",65.5 fL
same,Mono,"72 h, time 3 day",1.4%
same,Neu,"72 h, time 3 day",23.8%
same,PT,"72 h, time 3 day",16.8 s
same,Plat,"72 h, time 3 day",121.4 x10_4/uL
same,RBC,"72 h, time 3 day",590.2 x10_4/ul
same,Ret,"72 h, time 3 day",1.6%
same,WBC,"72 h, time 3 day",25.1 x10_2/uL
same,KIDNEY_L,"72 h, time 3 day",1 g
same,KIDNEY_R,"72 h, time 3 day",1 g
same,KIDNEY_TOTAL,"72 h, time 3 day",1.9 g
same,LIVER,"72 h, time 3 day",10.1 g
same,ALP,"72 h, time 3 day",1493.4 IU/L
same,ALT,"72 h, time 3 day",36.8 IU/L
same,AST,"72 h, time 3 day",65.2 IU/L
same,BUN,"72 h, time 3 day",16.4 mg/dL
same,CRE,"72 h, time 3 day",0.2 mg/dL
same,Ca,"72 h, time 3 day",10.6 mg/dL
same,Cl,"72 h, time 3 day",106.4 meq/L
same,DBIL,"72 h, time 3 day",0 mg/dL
same,GLC,"72 h, time 3 day",187.6 mg/dL
same,IP,"72 h, time 3 day",7.8 mg/dL
same,K,"72 h, time 3 day",3.9 meq/L
same,LDH,"72 h, time 3 day",169.2 IU/L
same,Na,"72 h, time 3 day",142.6 meq/L
same,PL,"72 h, time 3 day",148.2 mg/dL
same,RALB,"72 h, time 3 day",2.9 g/dL
same,TBIL,"72 h, time 3 day",0.008 mg/dL
same,TC,"72 h, time 3 day",78.8 mg/dL
same,TG,"72 h, time 3 day",95 mg/dL
same,TP,"72 h, time 3 day",5.5 g/dL
same,gamma-GTP,"72 h, time 3 day",1 IU/L
same,TERMINAL_BW,"[…], time 7 day",231.7 g
same,TERMINAL_BW,"[…], time 14 day",252.5 g
same,TERMINAL_BW,"[…], time 28 day",239.3 g
same,APTT,"[…], time 7 day",22.1 s
same,Bas,"[…], time 7 day",0%
same,Eos,"[…], time 7 day",1%
same,Fbg,"[…], time 7 day",277.2 mg/dL
same,Hb,"[…], time 7 day",13.1 g/dL
same,Ht,"[…], time 7 day",38.8%
same,Lym,"[…], time 7 day",77%
same,MCH,"[…], time 7 day",21 pg
same,MCHC,"[…], time 7 day",33.6%
same,MCV,"[…], time 7 day",62.5 fL
same,Mono,"[…], time 7 day",1.2%
same,Neu,"[…], time 7 day",20.4%
same,PT,"[…], time 7 day",15.2 s
same,Plat,"[…], time 7 day",81.8 x10_4/uL
same,RBC,"[…], time 7 day",622 x10_4/ul
same,Ret,"[…], time 7 day",2.8%
same,WBC,"[…], time 7 day",12.8 x10_2/uL
same,APTT,"[…], time 14 day",21 s
same,Bas,"[…], time 14 day",0%
same,Eos,"[…], time 14 day",0.8%
same,Fbg,"[…], time 14 day",278.4 mg/dL
same,Hb,"[…], time 14 day",12.8 g/dL
same,Ht,"[…], time 14 day",37.3%
same,Lym,"[…], time 14 day",63%
same,MCH,"[…], time 14 day",21.1 pg
same,MCHC,"[…], time 14 day",34.2%
same,MCV,"[…], time 14 day",61.8 fL
same,Mono,"[…], time 14 day",3%
same,Neu,"[…], time 14 day",32.2%
same,PT,"[…], time 14 day",14.1 s
same,Plat,"[…], time 14 day",107 x10_4/uL
same,RBC,"[…], time 14 day",604.8 x10_4/ul
same,Ret,"[…], time 14 day",2.3%
same,WBC,"[…], time 14 day",4.7 x10_2/uL
same,APTT,"[…], time 28 day",20.4 s
same,Bas,"[…], time 28 day",0%
same,Eos,"[…], time 28 day",2%
same,Fbg,"[…], time 28 day",277.6 mg/dL
same,Hb,"[…], time 28 day",9.3 g/dL
same,Ht,"[…], time 28 day",27.9%
same,Lym,"[…], time 28 day",20.8%
same,MCH,"[…], time 28 day",20.7 pg
same,MCHC,"[…], time 28 day",33.5%
same,MCV,"[…], time 28 day",62 fL
same,Mono,"[…], time 28 day",3.8%
same,Neu,"[…], time 28 day",69.2%
same,PT,"[…], time 28 day",17.7 s
same,Plat,"[…], time 28 day",79.2 x10_4/uL
same,RBC,"[…], time 28 day",448 x10_4/ul
same,Ret,"[…], time 28 day",8.3%
same,WBC,"[…], time 28 day",17.2 x10_2/uL
same,KIDNEY_L,"[…], time 7 day",0.9 g
same,KIDNEY_R,"[…], time 7 day",1 g
same,KIDNEY_TOTAL,"[…], time 7 day",1.9 g
same,KIDNEY_L,"[…], time 14 day",1 g
same,KIDNEY_R,"[…], time 14 day",1 g
same,KIDNEY_TOTAL,"[…], time 14 day",2.1 g
same,KIDNEY_L,"[…], time 28 day",1.1 g
same,KIDNEY_R,"[…], time 28 day",1.1 g
same,KIDNEY_TOTAL,"[…], time 28 day",2.1 g
same,LIVER,"[…], time 7 day",10.9 g
same,LIVER,"[…], time 14 day",11.4 g
same,LIVER,"[…], time 28 day",9.6 g
same,ALP,"[…], time 7 day",1013 IU/L
same,ALT,"[…], time 7 day",32.2 IU/L
same,AST,"[…], time 7 day",59 IU/L
same,BUN,"[…], time 7 day",16.6 mg/dL
same,CRE,"[…], time 7 day",0.2 mg/dL
same,Ca,"[…], time 7 day",10.8 mg/dL
same,Cl,"[…], time 7 day",106.8 meq/L
same,DBIL,"[…], time 7 day",0 mg/dL
same,GLC,"[…], time 7 day",178.8 mg/dL
same,IP,"[…], time 7 day",6.5 mg/dL
same,K,"[…], time 7 day",4.1 meq/L
same,LDH,"[…], time 7 day",200 IU/L
same,Na,"[…], time 7 day",143 meq/L
same,PL,"[…], time 7 day",144.8 mg/dL
same,RALB,"[…], time 7 day",2.8 g/dL
same,TBIL,"[…], time 7 day",0.018 mg/dL
same,TC,"[…], time 7 day",71.2 mg/dL
same,TG,"[…], time 7 day",139.6 mg/dL
same,TP,"[…], time 7 day",5.4 g/dL
same,gamma-GTP,"[…], time 7 day",1 IU/L
same,ALP,"[…], time 14 day",573.6 IU/L
same,ALT,"[…], time 14 day",19.8 IU/L
same,AST,"[…], time 14 day",40.8 IU/L
same,BUN,"[…], time 14 day",18.6 mg/dL
same,CRE,"[…], time 14 day",0.2 mg/dL
same,Ca,"[…], time 14 day",10.4 mg/dL
same,Cl,"[…], time 14 day",109.8 meq/L
same,DBIL,"[…], time 14 day",0.002 mg/dL
same,GLC,"[…], time 14 day",175.6 mg/dL
same,IP,"[…], time 14 day",6.2 mg/dL
same,K,"[…], time 14 day",4.2 meq/L
same,LDH,"[…], time 14 day",136 IU/L
same,Na,"[…], time 14 day",143.4 meq/L
same,PL,"[…], time 14 day",146 mg/dL
same,RALB,"[…], time 14 day",2.8 g/dL
same,TBIL,"[…], time 14 day",0.016 mg/dL
same,TC,"[…], time 14 day",73.6 mg/dL
same,TG,"[…], time 14 day",142.4 mg/dL
same,TP,"[…], time 14 day",5.4 g/dL
same,gamma-GTP,"[…], time 14 day",1.2 IU/L
same,ALP,"[…], time 28 day",471.2 IU/L
same,ALT,"[…], time 28 day",35.8 IU/L
same,AST,"[…], time 28 day",104.8 IU/L
same,BUN,"[…], time 28 day",30 mg/dL
same,CRE,"[…], time 28 day",0.2 mg/dL
same,Ca,"[…], time 28 day",9.7 mg/dL
same,Cl,"[…], time 28 day",114.2 meq/L
same,DBIL,"[…], time 28 day",0.05 mg/dL
same,GLC,"[…], time 28 day",165.6 mg/dL
same,IP,"[…], time 28 day",7.3 mg/dL
same,K,"[…], time 28 day",3.9 meq/L
same,LDH,"[…], time 28 day",516.4 IU/L
same,Na,"[…], time 28 day",145.8 meq/L
same,PL,"[…], time 28 day",122 mg/dL
same,RALB,"[…], time 28 day",2.6 g/dL
same,TBIL,"[…], time 28 day",0.1 mg/dL
same,TC,"[…], time 28 day",69.6 mg/dL
same,TG,"[…], time 28 day",74.4 mg/dL
same,TP,"[…], time 28 day",5.1 g/dL
same,gamma-GTP,"[…], time 28 day",1.6 IU/L

# Reference: ChEMBL document CHEMBL3885861, “Open TG-GATES”
